Test results taken from US7312237B2, “Combination of epothilone analogs and chemotherapeutic agents for the treatment of prolilferative diseases” (Bristol-Myers Squibb Co., priority 2001, dated 2007).

Experiments:
HCT-116 = assay: In vitro cytotoxicity (MTS assay), HCT-116; format: cell-based; conditions: Homo sapiens; HCT-116, 72 hour incubation
Protocol: HCT116 human carcinoma cell lines and HCT116/VM46 cells, a MDR variant, were maintained in McCoy's 5A medium (GIBCO) and 10% heat inactivated fetal bovine serum (GIBCO). A2780 human ovarian carcinoma cells and A2780Tax cells obtained from Dr. Antonio Fojo (NCI, Bethesda, Md.) were maintained in IMEM (GIBCO) and 10% fetal bovine serum (GIBCO).
The in vitro cytotoxicity was assessed in tumor cells by a tetrazolium-based colorimetric assay which takes advantage of the metabolic conversion of MTS (3-(4,5-dimethylthiazol-2-yl)-5-(3-carboxymethoxyphenyl)-2-(4-sulphenyl)-2H-tetrazolium, inner salt) to a reduced form that absorbs light at 492 nm. Cells were seeded 24 hr prior to drug addition. Following a 72 hour incubation at 37° C. with serially diluted compound, MTS, in combination with the electron coupling agent phenazine methosulfate, was added to the cells. The incubation was continued for 3 hours, then the absorbancy of the medium at 492 nm was measured with a spectrophotometer to obtain the number of surviving cells relative to control populations. The results are expressed as median cytotoxic concentrations (IC50 values).

[1] = In vivo antitumor testing, Pat-7 in nude mice; conditions: nude, mouse, in vivo
Protocol: (§1) All tumor implants for efficacy testing were subcutaneous (sc).
(§2) The MTD was frequently equivalent to OD. When death occurs, the day of death was recorded.
(§3) And, Log cell kill=T−C÷(3.32×TVDT)
(§4) This tumor model was established from a tumor biopsy of an ovarian cancer patient (Pat-7), who was initially responsive to TAXOL® treatment but ultimately developed resistance to it following nine courses of monotherapy with TAXOL®. Prior to treatment with TAXOL®, Pat-7 also received numerous other chemotherapeutic agents including carboplatin, cytoxan, VP-16, ifosfamide and altretamine. Tumor biopsy was taken following development of TAXOL® resistance.

[2] = tested on: Pat-7 human ovarian carcinoma; assay: In vivo antitumor testing, Pat-7 in nude mice
Protocol: as §1, §2, §3, §4

[3] = tested on: A2780Tax human ovarian carcinoma; conditions: Expt. 12, IV q2dx5, OD 6.3 mg/kg
Description: (§5) The following human tumors were used: A2780 ovarian, A2780Tax ovarian (established from cells obtained from Dr. Antonio Fojo, Medicine Branch, NCI, Bethesda, Md.), HCT116/VM46 colon, Pat-7 ovarian (established from a tumor biopsy provided by Dr. Thomas Hamilton, Fox Chase Cancer Center, Philadelphia, Pa.) from a patient who had developed resistance to TAXOL®). The murine fibrosarcoma M5076 was also employed.
The following tumors were passaged in the indicated host strain of mouse: murine M5076 fibrosarcoma (M5076) in C57Bl/6 mice; human A2780 and Pat-7 ovarian carcinomas, HCT116, HCT116/VM46 and LS174T colon carcinoma, Pat-21 breast carcinoma in nude mice. Tumor passage occurred biweekly for murine tumors and approximately every two to eight weeks for the various human tumor lines. With regard to efficacy testing, M5076 tumors were implanted in (C57Bl/6×DBA/2)F1 hybrid mice, and human tumors were implanted in nude mice. All tumor implants for efficacy testing were subcutaneous (sc). […]
(§6) Antitumor activity was evaluated at the maximum tolerated dose (MTD) which is defined as the dose level immediately […] which excessive toxicity (i.e. more than one death) occurred. […] When death occurs, the day of death was recorded. […]
(§7) To estimate tumor cell kill, the tumor volume doubling time was first calculated with the formula: […]

in vivo = conditions: nude, mouse, in vivo, iv, Compound 1 IV
Description: as §5
(§8) The following tumors were passaged in the indicated host strain of mouse: murine M5076 fibrosarcoma (M5076) in C57Bl/6 mice; human A2780 and Pat-7 ovarian carcinomas, HCT116, HCT116/VM46 and LS174T colon carcinoma, Pat-21 breast carcinoma in nude mice. Tumor passage occurred biweekly for murine tumors and approximately every two to eight weeks for the various human tumor lines. With regard to efficacy testing, M5076 tumors were implanted in (C57Bl/6×DBA/2)F1 hybrid mice, and human tumors were implanted in nude mice. All tumor implants for efficacy testing were subcutaneous (sc).
(§9) The required number of animals needed to detect a meaningful response were pooled at the start of the experiment and each was given a subcutaneous implant of a tumor fragment (·50 mg) with a 13-gauge trocar. For treatment of early-stage tumors, the animals were again pooled before distribution to the various treatment and control groups. For treatment of animals with advanced-stage disease, tumors were allowed to grow to the predetermined size window (tumors outside the range were excluded) and animals were evenly distributed to various treatment and control groups. Treatment of each animal was based on individual body weight. Treated animals were checked daily for treatment related toxicity/mortality. Each group of animals was weighed before the initiation of treatment (Wt1) and then again following the last treatment dose (Wt2). The difference in body weight (Wt2−Wt1) provides a measure of treatment-related toxicity.
(§10) Tumor weights (mg) were estimated from the formula: Tumor weight=(length×width^2)÷2
(§11) Antitumor activity was evaluated at the maximum tolerated dose (MTD) which is defined as the dose level immediately […] which excessive toxicity (i.e. more than one death) occurred. […] When death occurs, the day of death was recorded.
(§12) Tumor response end-point was expressed in terms of tumor growth delay (T-C value), defined as the difference in time (days) required for the treated tumors (T) to reach a predetermined target size compared to those of the control group (C).
(§13) To estimate tumor cell kill, the tumor volume doubling time was first calculated with the formula:
(§14) TVDT=Median time (days) for control tumors to reach target size−Median time (days) for control tumors to reach half the target size
(§15) HCT116/VM46 is an MDR-resistant colon carcinoma developed from the sensitive HCT116 parent line.

[4] = tested on: HCT116/VM46 human colon carcinoma; assay: in vivo
Description: as §5, §8, §9, §10, §11, §12, §13, §14, §15

Pat-21 breast carcinoma = conditions: Expt. R667, IV q4dx3; 41, 68, OD 10 mg/kg; interim analysis, study in progress
Description: as §8, §9, §10, §6, §7

[5] = In vivo antitumor testing, A2780 in nude mice; conditions: nude, mouse, in vivo, iv, Compound 1 IV, read-out: OD (optimal dose or MTD)
Protocol: as §1, §2, §3

[6] = tested on: A2780 human ovarian carcinoma; assay: In vivo antitumor testing, A2780 in nude mice
Protocol: as §1, §2, §3

[7] = human, in vivo
[8] = Expt. 89, IV q2dx5, OD 6.3 mg/kg
[9] = Expt. 115, IV q2dx5, OD 6.3 mg/kg
[10] = Expt. 115, IV q4dx3, OD 16 mg/kg

C/C(=C\c1csc(C)n1)[C@@H]1C[C@@H]2O[C@]2(C)CCC[C@H](C)[C@H](O)[C@@H](C)C(=O)C(C)(C)[C@@H](O)CC(=O)N1 (relative stereo) [Compound 1, [1S-[1R*,3R*(E),7R*,10S*,11R*,12R*,16S*]]-7,11-dihydroxy-8,8,10,12,16-pentamethyl-3-[1-methyl-2-(2-methyl-4-thiazolyl)ethenyl]-4-aza-17-oxabicyclo[14.1.0] heptadecane-5,9-dione]
IC50 (HCT-116): 2.6 nM | MTD ([1]; iv, Compound 1 IV, q2dx5, read-out: OD (optimal dose or maximum tolerated dose, MTD)): 4.8 mg/kg | MTD ([1]; iv, Compound 1 IV, q4dx3, read-out: OD (optimal dose or MTD)): 15 mg/kg | MTD ([1]; po, Compound 1 PO, q2dx5, read-out: OD (optimal dose or MTD)): 60 mg/kg | OD (optimal dose or maximum tolerated dose, MTD) ([2]; Compound 1 IV, q2dx5): 6.3 mg/kg | OD (optimal dose or MTD) ([2]; Compound 1 PO, q2dx5): 80 mg/kg | LCK (gross log cell kill) ([2]; Expt. 8, IV q2dx5, OD 6.3 mg/kg): 4.5 | LCK (gross log cell kill) ([2]; Expt. 8, PO q2dx5, OD 60 mg/kg): 3.1 | LCK (gross log cell kill) ([2]; Expt. 9, PO q2dx5, OD 80 mg/kg): 2.5 | LCK (gross log cell kill) ([2]; Expt. 12, IV q2dx5, OD 6.3 mg/kg): 2.1 | LCK (gross log cell kill) ([2]; Expt. 12, IV q4dx3, OD 15 mg/kg): 1.7 | LCK (gross log cell kill) ([2]; Expt. R403, IV q2dx5, OD 4.8 mg/kg): 2.1 | LCK (gross log cell kill) [3]: 2.5 | MTD (in vivo; OD (optimal dose or MTD), q2dx5): 4.8 mg/kg | MTD (in vivo; OD (optimal dose or MTD; maximum tolerated regimen), q4dx3): 15 mg/kg | OD (optimal dose or MTD) ([4]; Compound 1 IV, q2dx5): 6.3 mg/kg | OD (optimal dose or MTD; maximum tolerated regimen) ([4]; Compound 1 IV, q4dx3): 16 mg/kg | LCK (gross log cell kill) ([4]; Expt. 32, IV q2dx5, OD 4.8 mg/kg): 3.1 | LCK (gross log cell kill) ([4]; Expt. 33, IV q2dx5, OD 4.8 mg/kg): 1.3 | LCK (gross log cell kill) ([4]; Expt. 35, IV q2dx5, OD 6.3 mg/kg): 1.8 | LCK (gross log cell kill) ([4]; Expt. 35, IV q4dx3, OD 16 mg/kg): 2.0 | LCK of tumor response ([4]; FIG. 7, Compound 1 alone, 15 mg/kg iv, q4dx3): 1.6 LCK | tumor cure ([4]; FIG. 7, single agent treatment at maximum tolerated regimen): did not induce tumor cure | LCK (gross log cell kill) (Pat-21 breast carcinoma): >1.5^5 | MTD ([5]; q2dx5): 6.3 mg/kg | MTD ([5]; q4dx3): 16 mg/kg | OD (optimal dose or MTD) ([6]; Compound 1 IV, q2dx5): 4.8 mg/kg | LCK (gross log cell kill) [6, 8]: > 4.8 | cures/total [6, 8]: 3/7 | LCK (gross log cell kill) ([6]; Expt. 92, IV q2dx5, OD 6.3 mg/kg): 2 | LCK (gross log cell kill) ([6]; Expt. 111, IV q2dx5, OD 4.8 mg/kg): 3.1 | LCK (gross log cell kill) [6, 9]: 2.4 | cures/total [6, 9]: 0/8 | LCK (gross log cell kill) [6, 10]: >5.3 | cures/total [6, 10]: 3/7 | dose recommended for Phase II clinical trials [7]: 50 mg/m2
